In the supplement of paper PMC10331698:
± gives the standard deviation of the averaged measurements.

Legend:
Experiment in all cases: level (log10 ratio to DMSO vehicle control); higher = higher biomarker level / cell amount than vehicle control
[1] = compound: CO[Si](C)(CCC(F)(F)C(F)(F)C(F)(F)C(F)(F)C(F)(F)C(F)(F)F)OC [Dimethoxymethyl((perfluorohexyl)ethyl)silane] (in DMSO)
Experimental: (§1)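 BioMAP Diversity Plus panel of 12 human primary cell co-culture systems (3C, 4H, LPS, SAg, BT, BF4T, BE3C, CASM3C, HDF3CGF, KF3CT, MyoF, Mphg). Compounds were added 1 h before stimulation and left for 24 h (MyoF 48 h; BT 72 h for soluble read-outs or 6 d for IgG). Biomarkers were read by ELISA, cytotoxicity by SRB, PBMC viability and proliferation by Alamar Blue. Each well value was divided by the mean of 8 DMSO control wells on the same plate and log10 transformed; duplicate blinded samples were tested at 4 concentrations.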

[2] = compound: C[C@@H]1C[C@H]2[C@@H]3CCC4=CC(=O)C=C[C@]4(C)[C@@]3(F)[C@@H](O)C[C@]2(C)[C@@]1(O)C(=O)COP(=O)(O)O [Dexamethasone sodium phosphate] (in DMSO)
Experimental: as §1

[3] = compound: NS(=O)(=O)C(F)(F)C(F)(F)C(F)(F)C(F)(F)C(F)(F)C(F)(F)C(F)(F)C(F)(F)F [Perfluorooctanesulfonamide] (in DMSO)
Experimental: as §1

[4] = compound: O=C(O)C(F)(F)C(F)(F)C(F)(F)C(F)(F)C(=O)O [Octafluoroadipic acid] (in DMSO)
Experimental: as §1

[5] = compound: O=S(=O)(O)C(F)(F)C(F)(F)C(F)(F)C(F)(F)C(F)(F)C(F)(F)C(F)(F)F [Perfluoroheptanesulfonic acid] (in DMSO)
Experimental: as §1

[6] = compound: OCC(F)(F)OC(F)(F)C(F)(F)OC(F)(F)C(F)(F)OC(F)(F)CO [1H,1H,11H,11H-Perfluorotetraethylene glycol] (in DMSO)
Experimental: as §1

| Test System | level (log10) ([1]; 6700 nM) | level (log10) ([1]; 20000 nM) | level (log10) ([2]; 1500 nM) | level (log10) ([2]; 4400 nM) | level (log10) ([2]; 13000 nM) | level (log10) ([2]; 40000 nM) | level (log10) ([3]; 6700 nM) | level (log10) ([3]; 20000 nM) | level (log10) ([4]; 6700 nM) | level (log10) ([4]; 20000 nM) | level (log10) ([4]; 60000 nM) | level (log10) ([5]; 1500 nM) | level (log10) ([5]; 4400 nM) | level (log10) ([5]; 13000 nM) | level (log10) ([5]; 40000 nM) | level (log10) ([6]; 6700 nM) | level (log10) ([6]; 20000 nM) | level (log10) ([6]; 60000 nM) |
| --- | --- | --- | --- | --- | --- | --- | --- | --- | --- | --- | --- | --- | --- | --- | --- | --- | --- | --- |
| CASM3C:CXCL8/IL-8 | -0.004 | 0.004 ± 0.0085 | -0.075 ± 0.044 | -0.0815 ± 0.023 | -0.092 ± 0.0057 | -0.084 ± 0.0042 | -0.0055 ± 0.0035 | -0.0125 ± 0.0035 | -0.0005 ± 0.0092 | -0.002 ± 0.0071 | 0.0045 ± 0.022 | 0.0015 ± 0.013 | -0.005 ± 0.0099 | -0.0105 ± 0.005 | -0.0005 ± 0.019 | 0.002 ± 0.016 | -0.0085 ± 0.016 | -0.004 ± 0.011 |
| KF3CT:CXCL9/MIG | -0.004 | -0.005 ± 0.0028 | -0.008 ± 0.024 | 0.002 ± 0.0014 | -0.0075 ± 0.0021 | -0.01 ± 0.0014 | 0.0075 ± 0.0035 | -0.032 ± 0.034 | 0.003 ± 0.014 | 0.0075 ± 0.016 | 0.0155 ± 0.0021 | -0.005 ± 0.0071 | -0.006 ± 0.0099 | -0.005 ± 0.0028 | 0.014 ± 0.0042 | -0.006 ± 0.031 | -0.001 ± 0.013 | -0.013 ± 0.018 |
| lMphg:CD106/VCAM-1 | 0.009 ± 0.021 | -0.009 ± 0.028 | -0.018 ± 0.0071 | -0.039 ± 0.0028 | -0.0615 ± 0.013 | -0.086 ± 0.0042 | 0.006 ± 0.014 | 0.0365 ± 0.0021 | -0.007 ± 0.02 | 0.0065 ± 0.011 | 0.0055 ± 0.005 | -0.0135 ± 0.0035 | -0.0285 ± 0.021 | -0.0115 ± 0.016 | -0.019 ± 0.0014 | -0.015 ± 0.024 | 0.009 ± 0.05 | 0 ± 0.04 |
| MyoF:Decorin | -0.0005 ± 0.0021 | 0.029 ± 0.034 | 0.016 ± 0.011 | 0.0385 ± 0.012 | 0.034 ± 0.033 | 0.039 ± 0.042 | 0.0265 ± 0.053 | 0.031 ± 0.037 | 0.0005 ± 0.011 | -0.0055 ± 0.019 | -0.001 ± 0.013 | -0.0075 ± 0.015 | -0.006 ± 0.0042 | 0.009 ± 0.0014 | 0.0615 ± 0.011 | -0.009 | -0.013 | 0.019 ± 0.017 |
| BE3C:Keratin 8/18 | 0.0155 ± 0.011 | 0.0075 ± 0.005 | 0.0045 ± 0.012 | 0.0035 ± 0.00071 | -0.025 ± 0.0042 | -0.0165 ± 0.0064 | -0.0475 ± 0.013 | -0.0185 ± 0.0021 | -0.0095 ± 0.0078 | -0.0105 ± 0.025 | 0.0095 ± 0.0021 | -0.013 ± 0.035 | -0.0065 ± 0.037 | -0.015 ± 0.033 | -0.0185 ± 0.033 | 0.0025 ± 0.049 | -0.0065 ± 0.00071 | -0.023 ± 0.025 |
| CASM3C:Proliferation | 0.0455 ± 0.0078 | 0.041 ± 0.061 | 0.084 ± 0.025 | 0.033 ± 0.024 | 0.062 ± 0.025 | 0.059 ± 0.0042 | -0.027 ± 0.0085 | 0.0415 ± 0.032 | -0.066 ± 0.0071 | -0.004 ± 0.073 | 0.014 ± 0.051 | 0.0285 ± 0.0092 | -0.026 | -0.028 ± 0.016 | -0.034 ± 0.028 | -0.039 ± 0.079 | -0.039 ± 0.062 | -0.12 ± 0.03 |
| HDF3CGF:MMP-1 | -0.0165 ± 0.018 | -0.005 ± 0.042 | -0.0695 ± 0.011 | -0.065 ± 0.016 | -0.098 ± 0.018 | -0.081 ± 0.042 | 0.0145 ± 0.026 | -0.206 ± 0.096 | -0.0115 ± 0.0078 | 0.0025 ± 0.0035 | 0.0015 ± 0.0064 | 0.0235 ± 0.013 | 0.013 ± 0.014 | 0.0205 ± 0.018 | 0.009 ± 0.024 | 0.0265 ± 0.0092 | 0.0845 ± 0.021 | 0.095 ± 0.0014 |
| lMphg:CD69 | -0.0205 ± 0.018 | -0.0435 ± 0.037 | 0.039 ± 0.014 | -0.007 ± 0.017 | -0.0155 ± 0.029 | -0.0585 ± 0.022 | -0.0435 ± 0.052 | -0.11 ± 0.037 | 0.0095 ± 0.037 | 0.0035 ± 0.081 | -0.008 ± 0.054 | -0.014 ± 0.055 | -0.008 ± 0.027 | -0.0145 ± 0.00071 | -0.0155 ± 0.018 | -0.0285 ± 0.023 | -0.0155 ± 0.016 | 0.0065 ± 0.06 |
